# Test results reported in ChEMBL document CHEMBL1955864, “N-1 and C-3 substituted indole Schiff bases as selective COX-2 inhibitors: synthesis and biological evaluation” (Bioorg Med Chem Lett, 2012).
# Target: T1, Prostaglandin G/H synthase 1 (Ovis aries, UniProt P05979)
# T1 sequence (P05979 whole entry): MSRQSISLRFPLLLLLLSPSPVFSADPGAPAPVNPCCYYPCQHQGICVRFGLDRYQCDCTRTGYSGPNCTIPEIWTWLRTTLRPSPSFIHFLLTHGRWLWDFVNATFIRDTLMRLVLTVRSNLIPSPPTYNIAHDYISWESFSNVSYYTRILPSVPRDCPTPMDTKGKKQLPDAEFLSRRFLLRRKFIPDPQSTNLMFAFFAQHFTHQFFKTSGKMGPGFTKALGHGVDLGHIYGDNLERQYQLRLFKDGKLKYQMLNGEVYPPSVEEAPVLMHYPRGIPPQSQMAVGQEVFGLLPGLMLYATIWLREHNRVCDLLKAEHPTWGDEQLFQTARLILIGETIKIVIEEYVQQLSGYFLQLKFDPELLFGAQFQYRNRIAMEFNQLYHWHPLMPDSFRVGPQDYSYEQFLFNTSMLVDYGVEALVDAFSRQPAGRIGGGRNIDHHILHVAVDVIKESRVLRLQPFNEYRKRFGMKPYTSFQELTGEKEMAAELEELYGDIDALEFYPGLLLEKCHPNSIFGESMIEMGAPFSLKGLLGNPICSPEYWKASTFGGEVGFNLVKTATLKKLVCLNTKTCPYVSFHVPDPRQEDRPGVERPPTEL
# Test: Inhibition of ovine COX-1 by enzyme immuno assay
row,IC50,SMILES
1,68.4 µM,Fc1ccc(/N=C/c2c[nH]c3ccccc23)cc1
2,62.3 µM,Cc1ccc(/N=C/c2c[nH]c3ccccc23)cc1
3,78.2 µM,FC(F)(F)c1ccc(/N=C/c2c[nH]c3ccccc23)cc1
4,91.1 µM,Fc1ccc(/N=C/c2cn(Cc3ccccc3)c3ccccc23)cc1
5,81.5 µM,Cc1ccc(/N=C/c2cn(Cc3ccccc3)c3ccccc23)cc1
6,95.5 µM,FC(F)(F)c1ccc(/N=C/c2cn(Cc3ccccc3)c3ccccc23)cc1
7,> 100 µM,O=C(c1ccccc1)n1cc(/C=N/c2ccc(F)cc2)c2ccccc21
8,80.2 µM,Cc1ccc(/N=C/c2cn(C(=O)c3ccccc3)c3ccccc23)cc1
9,> 100 µM,O=C(c1ccccc1)n1cc(/C=N/c2ccc(C(F)(F)F)cc2)c2ccccc21
10,86.1 µM,O=C(c1ccccc1)n1cc(/C=N/c2ccc(Cl)cc2)c2ccccc21
